Laboratory results taken from publication PMC4871539 (PLoS ONE, 2016).

Assays:
E. coli 35218R [1] = assay: microbe, parasite or virus in culture; conditions: Escherichia coli
E. coli ATCC 35218 = assay type: cell-based, Escherichia coli; conditions: 30-μg cefoxitin disc
E. coli 35218R [2] = assay type: cell-based, Escherichia coli; conditions: 30-μg cefoxitin disc
[3] = mouse, in vivo; cited from earlier work
[4] = mouse, in vivo

Row | Molecule | MIC (E. coli 35218R [1]) [mg/L] | further results
1 | C[C@H]1[C@H](NC(=O)/C(=N\OC(C)(C)C(=O)O)c2csc(N)n2)C(=O)N1S(=O)(=O)O [Aztreonam] | ≤ 1 | –
2 | CO/N=C(\C(=O)N[C@@H]1C(=O)N2C(C(=O)[O-])=C(C[N+]3(C)CCCC3)CS[C@H]12)c1csc(N)n1 [Cefepime] | ≤ 1 | –
3 | CO[C@@]1(NC(=O)Cc2cccs2)C(=O)N2C(C(=O)O)=C(COC(N)=O)CS[C@@H]21 [Cefoxitin] | ≤ 4 | inhibition zone (mean ± SD) (E. coli ATCC 35218): 27.2 ± 0.1 mm; inhibition zone (mean ± SD) (E. coli 35218R [2]): 27.9 ± 0.1 mm
4 | CC(C)(O/N=C(\C(=O)N[C@@H]1C(=O)N2C(C(=O)[O-])=C(C[n+]3ccccc3)CS[C@H]12)c1csc(N)n1)C(=O)O [Ceftazidime] | ≤ 1 | –
5 | CO/N=C(\C(=O)N[C@@H]1C(=O)N2C(C(=O)O)=C(CSc3nc(=O)c(=O)[nH]n3C)CS[C@H]12)c1csc(N)n1 [Ceftriaxone] | ≤ 1 | –
6 | C[C@@H](O)[C@H]1C(=O)N2C(C(=O)O)=C(S[C@@H]3CN[C@H](C(=O)Nc4cccc(C(=O)O)c4)C3)[C@H](C)[C@H]12 [Ertapenem] | ≤ 0.5 | –
7 | C[C@@H](O)[C@H]1C(=O)N2C(C(=O)O)=C(SCCN=CN)C[C@H]12 [Imipenem] | ≤ 1 | –
8 | C[C@@H](O)[C@H]1C(=O)N2C(C(=O)O)=C(S[C@@H]3CN[C@H](C(=O)N(C)C)C3)[C@H](C)[C@H]12 [Meropenem] | ≤ 0.25 | –
9 | CN[C@H](CC(C)C)C(=O)N[C@H]1C(=O)N[C@@H](CC(N)=O)C(=O)N[C@H]2C(=O)N[C@H]3C(=O)N[C@H](C(=O)N[C@H](C(=O)O)c4cc(O)cc(O)c4-c4cc3ccc4O)[C@H](O)c3ccc(c(Cl)c3)Oc3cc2cc(c3O[C@@H]2O[C@H](CO)[C@@H](O)[C@H](O)[C@H]2O[C@H]2C[C@](C)(N)[C@H](O)[C@H](C)O2)Oc2ccc(cc2Cl)[C@H]1O [vancomycin] | – | elimination half-life [3]: ~30 min
10 | piperacillin-tazobactam [Farmalogica] | – | bioequivalence test versus innovator [4]: passed
11 | piperacillin-tazobactam [Procaps] | – | bioequivalence test versus innovator [4]: passed
